# Values of other authors as cited in patent US20110171165A1 (priority 2008, published 2011).
# Target: δ receptors (Cavia porcellus, UniProt A0A286XTF2)
# Settings: read-out: affinity for δ receptors; guinea-pig brain membranes
# Sequence of δ receptors (A0A286XTF2 1-366): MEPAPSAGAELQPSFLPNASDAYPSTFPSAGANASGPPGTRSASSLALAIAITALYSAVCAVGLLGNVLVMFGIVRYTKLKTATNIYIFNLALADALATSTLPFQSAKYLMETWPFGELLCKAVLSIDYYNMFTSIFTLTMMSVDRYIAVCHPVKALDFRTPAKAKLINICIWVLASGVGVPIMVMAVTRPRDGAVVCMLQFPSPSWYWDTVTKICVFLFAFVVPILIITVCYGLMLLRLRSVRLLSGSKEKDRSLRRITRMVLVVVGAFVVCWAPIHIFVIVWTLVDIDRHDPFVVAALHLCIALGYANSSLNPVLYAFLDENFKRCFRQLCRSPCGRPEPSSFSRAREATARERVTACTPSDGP
structure (smiles),measurement,value
"CSCC[C@H](NC(=O)[C@H](Cc1ccccc1)NC(=O)CNC(=O)CNC(=O)[C@@H](N)Cc1ccc(O)cc1)C(=O)O [OGF, Tyr-Gly-Gly-Phe-Met]",Ki,0.9 nM
